Where “and” joins values, the source holds several entries; their conditions need not be identical. Equal entries are not always repeated.
How the values were obtained:
Assay type in all cases: in vivo
Spring Wheat “Freya” = test: Test 1B glasshouse assay, post-emergence herbicidal activity against cereal crops
Poa annua (POAAN) = test: Test 1B glasshouse assay, post-emergence herbicidal activity against grassy weeds; conditions: 14 DAA
Procedure, shortened: (§1)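 Herbicide applied post-emergence at rates such as 60 g/ha (±50 g/ha cloquintocet-mexyl) or 90 and 120 g/ha (with safener), rates varying per compound. Plants kept at 22/16 °C, watered twice daily; percentage phytotoxicity scored visually after 14 days.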

Setaria viridis (SETVI) = test: as above; conditions: 14 DAA
Procedure, shortened: as §1

Avena fatua (AVEFA) [1] = test: as above; conditions: 14 DAA
Procedure, shortened: as §1

[2] = tested on: Lolium multiflorum (LOLMU); test: as above; conditions: 14 DAA
Procedure, shortened: as §1

[3] = tested on: Alopecurus myosuroides (ALOMY); test: as above; conditions: 14 DAA
Procedure, shortened: as §1

Lolium perenne (LOLPE) = test: Test 1A glasshouse assay, post-emergence herbicidal activity; conditions: Lolium perenne, 312 h, application rate 250 g/ha, 13 days after application, visual (100%=total damage; 0%=no damage), read-out: Post-emergence Herbicidal Activity (% Phytotoxicity) LOLPE
Procedure, shortened: (§2)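 Pots sown in standard soil; plants grown 8 days in glasshouse (24/16 °C day/night, 14 h light, 65% humidity), then sprayed with compound formulated in acetone/water (50:50) with 0.5% Tween 20. Regrown under same conditions, watered twice daily; visual % phytotoxicity scored 13 days after application (0 = none, 100 = total damage).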

Avena fatua (AVEFA) [4] = test: as above; conditions: Avena fatua, 312 h, application rate 250 g/ha, 13 days after application, visual (100%=total damage; 0%=no damage), read-out: Post-emergence Herbicidal Activity (% Phytotoxicity) AVEFA
Procedure, shortened: as §2

[5] = tested on: Echinochloa crus-galli (ECHCG); test: as above; conditions: Echinochloa crus-galli, 312 h, application rate 250 g/ha, 13 days after application, visual (100%=total damage; 0%=no damage), read-out: Post-emergence Herbicidal Activity (% Phytotoxicity) ECHCG
Procedure, shortened: as §2

[6] = tested on: Alopecurus myosuroides (ALOMY); test: as above; conditions: Alopecurus myosuroides, 312 h, application rate 250 g/ha, 13 days after application, visual (100%=total damage; 0%=no damage), read-out: Post-emergence Herbicidal Activity (% Phytotoxicity) ALOMY
Procedure, shortened: as §2

[7] = herbicide 30 g/ha, cloquintocet-mexyl 50 g/ha
[8] = herbicide 60 g/ha, cloquintocet-mexyl 0 g/ha
[9] = herbicide 60 g/ha, cloquintocet-mexyl 50 g/ha
[10] = 30 g/ha herbicide, 50 g/ha cloquintocet-mexyl
[11] = 45 g/ha herbicide, 50 g/ha cloquintocet-mexyl
[12] = 60 g/ha herbicide, 0 g/ha cloquintocet-mexyl
[13] = 60 g/ha herbicide, 50 g/ha cloquintocet-mexyl

| SMILES | Percentage Phytotoxicity Spring Wheat “Freya” (Spring Wheat “Freya”; [7]) | Percentage Phytotoxicity Spring Wheat “Freya” (Spring Wheat “Freya”; [8]) | Percentage Phytotoxicity Spring Wheat “Freya” (Spring Wheat “Freya”; [9]) | Post-emergence herbicidal activity, percentage phytotoxicity, POAAN (Poa annua (POAAN); [10]) | Post-emergence herbicidal activity, percentage phytotoxicity, POAAN (Poa annua (POAAN); [11]) | Post-emergence herbicidal activity, percentage phytotoxicity, POAAN (Poa annua (POAAN); [12]) | Post-emergence herbicidal activity, percentage phytotoxicity, SETVI (Setaria viridis (SETVI); [10]) | Post-emergence herbicidal activity, percentage phytotoxicity, SETVI (Setaria viridis (SETVI); [11]) | Post-emergence herbicidal activity, percentage phytotoxicity, SETVI (Setaria viridis (SETVI); [12]) | Post-emergence herbicidal activity, percentage phytotoxicity, SETVI (Setaria viridis (SETVI); [13]) | Post-emergence herbicidal activity, percentage phytotoxicity, AVEFA (Avena fatua (AVEFA) [1]; [10]) | Post-emergence herbicidal activity, percentage phytotoxicity, AVEFA (Avena fatua (AVEFA) [1]; [11]) | Post-emergence herbicidal activity, percentage phytotoxicity, AVEFA (Avena fatua (AVEFA) [1]; [12]) | Post-emergence herbicidal activity, percentage phytotoxicity, AVEFA (Avena fatua (AVEFA) [1]; [13]) | Post-emergence herbicidal activity, percentage phytotoxicity, LOLMU [2, 10] | Post-emergence herbicidal activity, percentage phytotoxicity, LOLMU [2, 11] | Post-emergence herbicidal activity, percentage phytotoxicity, LOLMU [2, 12] | Post-emergence herbicidal activity, percentage phytotoxicity, LOLMU [2, 13] | Post-emergence herbicidal activity, percentage phytotoxicity, ALOMY [3, 10] | Post-emergence herbicidal activity, percentage phytotoxicity, ALOMY [3, 11] | also measured |
| --- | --- | --- | --- | --- | --- | --- | --- | --- | --- | --- | --- | --- | --- | --- | --- | --- | --- | --- | --- | --- | --- |
| Cc1cc(C)c(C2C(=O)CC(CCNC(=O)c3cccc(F)n3)C2=O)c(C)c1 (racemic) [Compound A89] | 13% | 70% | 38% | 0% | 3% | 25% and 15% | 100% and 95% | 100% | 100% and 99% | 100% | 83% and 85% | 85% | 90% and 97% | 90% and 93% | 90% and 93% | 99% | 100% | 100% and 95% | 88% and 80% | 97% | Post-emergence herbicidal activity, percentage phytotoxicity, ALOMY [3, 12]: 98% and 99%; Post-emergence herbicidal activity, percentage phytotoxicity, ALOMY [3, 13]: 98%; pest or weed control at 250 g/ha (Lolium perenne (LOLPE)): 100%; pest or weed control at 250 g/ha (Avena fatua (AVEFA) [4]): 100%; pest or weed control at 250 g/ha [5]: 100%; pest or weed control at 250 g/ha [6]: 100% |
| Cc1cc(C)c(C2C(=O)CC(CCNC(=O)c3ccc(Br)cn3)C2=O)c(C)c1 (racemic) [Compound A120, 5-bromo-N-{2-[2,4-dioxo-3-(2,4,6-trimethylphenyl)cyclopentyl]ethyl}pyridine-2-carboxamide] | 18% | 55% | 30% | 3% | 3% | 10% | 100% | 100% | 100% | 100% | 75% | 78% | 85% | 78% | 98% | 99% | 100% | 99% | 75% | 80% | Percentage Phytotoxicity Spring Wheat “Freya” (Spring Wheat “Freya”; herbicide 45 g/ha, cloquintocet-mexyl 50 g/ha): 30%; Post-emergence herbicidal activity, percentage phytotoxicity, POAAN (Poa annua (POAAN); [13]): 3%; Post-emergence herbicidal activity, percentage phytotoxicity, ALOMY [3, 12]: 85%; Post-emergence herbicidal activity, percentage phytotoxicity, ALOMY [3, 13]: 80%; pest or weed control at 250 g/ha (Lolium perenne (LOLPE)): 100%; pest or weed control at 250 g/ha (Avena fatua (AVEFA) [4]): 90%; pest or weed control at 250 g/ha [5]: 100%; pest or weed control at 250 g/ha [6]: 100% |
